From publication PMC4102788, “Linking off-target kinase pharmacology to the differential cellular effects observed among PARP inhibitors” (Oncotarget, 2014)

Tests used:
human CDK9 kinase = biological target: T1, human CDK9 kinase (Homo sapiens, UniProt P50750); assay: Human CDK9 kinase in vitro inhibition assay (Cerep, LANCE); assay type: biochemical; conditions: human recombinant enzyme, 10 µM ATP
T1 construct: purchased Cerep (CRO that ran the assay) 2912 (781-cdk9); host or cells: Sf9 cells
Source text: (§1) Rucaparib, veliparib and olaparib were purchased from Selleckchem. Kinase in vitro assays were perfomed at Cerep (www.cerep.fr) by measuring the phosphorylation of appropriate peptide substrates by human recombinant enzymes and using FRET as a detection method (a detailed description of each kinase assay is available in online supplementary data).
Human CDK9 kinase in vitro inhibition assay
All details for the CDK9 in vitro assay can be consulted in the Cerep Catalogue available online under references 2912 (781-cdk9): http://www.cerep.fr/cerep/users/pages/catalog/Affiche_CondExp_Test.asp?test=2912 Evaluation of the effects of compounds on the activity of the human CDK9 quantified by measuring the phosphorylation of the substrate Ulight- […]
mixture is incubated for 90 min at room temperature. […] After 60 more min, the fluorescence transfer is measured at λex=337 nm, λem=620 nm and λem=665 nm using a microplate reader (Envision, Perkin Elmer). The enzyme activity is determined by dividing the signal measured at λem=665 nm by that measured at λem=620 nm (ratio). The results are expressed as a percent inhibition of the control enzyme activity. The standard inhibitory reference compound is staurosporine, which is tested in each experiment at several concentrations to obtain an inhibition curve from which its IC50 value is calculated. […]

human PIM2 kinase = biological target: T2, human PIM2 kinase (Homo sapiens, UniProt Q9P1W9); assay: Human Pim2 kinase in vitro inhibition assay (Cerep, LANCE/FRET); assay type: biochemical
T2 construct: purchased Cerep (CRO that ran the assay) 2920 (745-P2); host or cells: insect cells
T2 sequence (Q9P1W9 whole entry): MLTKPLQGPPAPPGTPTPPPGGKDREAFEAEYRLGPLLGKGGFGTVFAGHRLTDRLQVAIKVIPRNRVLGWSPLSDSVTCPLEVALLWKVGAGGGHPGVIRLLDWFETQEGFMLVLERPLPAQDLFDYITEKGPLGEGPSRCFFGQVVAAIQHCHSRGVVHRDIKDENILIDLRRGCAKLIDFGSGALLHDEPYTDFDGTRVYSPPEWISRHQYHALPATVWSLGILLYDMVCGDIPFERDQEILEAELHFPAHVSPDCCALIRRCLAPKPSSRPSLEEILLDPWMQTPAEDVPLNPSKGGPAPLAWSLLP
Source text: as §1
Human Pim1 and Pim2 kinase in vitro inhibition assays
All details for the Pim1 and Pim2 in vitro assays can be consulted in the Cerep […]
http://www.cerep.fr/cerep/users/pages/catalog/Affiche_CondExp_Test.asp?test=2919, http://www.cerep.fr/cerep/users/pages/catalog/Affiche_CondExp_Test.asp?test=2920.
Evaluation of the effects of compounds on the activity of the human Pim1 and Pim2 kinases were quantified by measuring the phosphorylation of the substrate Ulight- […]
([…]) and ATP (30 µM for Pim1 and 3 µM for Pim2), and the mixture is incubated for 60 min at room temperature. […] After 60 more min, the fluorescence transfer is measured at λex=337 nm, λem=620 nm and λem=665 nm using a microplate reader (Envision, Perkin Elmer).
The enzyme activity is determined by dividing the signal measured at λem=665 nm by that measured at λem=620 nm (ratio). The results are expressed as a percent inhibition of the control enzyme activity. […]

T1 sequence (P50750 whole entry): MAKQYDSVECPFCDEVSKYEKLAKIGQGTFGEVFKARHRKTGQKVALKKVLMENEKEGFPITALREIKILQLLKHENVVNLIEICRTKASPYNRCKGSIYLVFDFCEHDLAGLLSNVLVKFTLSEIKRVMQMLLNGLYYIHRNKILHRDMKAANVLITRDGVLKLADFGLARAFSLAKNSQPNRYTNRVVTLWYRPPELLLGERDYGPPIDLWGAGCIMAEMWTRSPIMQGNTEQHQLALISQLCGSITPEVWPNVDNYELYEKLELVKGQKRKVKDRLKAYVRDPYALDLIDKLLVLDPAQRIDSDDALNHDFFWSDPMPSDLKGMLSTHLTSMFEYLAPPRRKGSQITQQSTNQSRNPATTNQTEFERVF
T1 sequence (O60563 whole entry partner): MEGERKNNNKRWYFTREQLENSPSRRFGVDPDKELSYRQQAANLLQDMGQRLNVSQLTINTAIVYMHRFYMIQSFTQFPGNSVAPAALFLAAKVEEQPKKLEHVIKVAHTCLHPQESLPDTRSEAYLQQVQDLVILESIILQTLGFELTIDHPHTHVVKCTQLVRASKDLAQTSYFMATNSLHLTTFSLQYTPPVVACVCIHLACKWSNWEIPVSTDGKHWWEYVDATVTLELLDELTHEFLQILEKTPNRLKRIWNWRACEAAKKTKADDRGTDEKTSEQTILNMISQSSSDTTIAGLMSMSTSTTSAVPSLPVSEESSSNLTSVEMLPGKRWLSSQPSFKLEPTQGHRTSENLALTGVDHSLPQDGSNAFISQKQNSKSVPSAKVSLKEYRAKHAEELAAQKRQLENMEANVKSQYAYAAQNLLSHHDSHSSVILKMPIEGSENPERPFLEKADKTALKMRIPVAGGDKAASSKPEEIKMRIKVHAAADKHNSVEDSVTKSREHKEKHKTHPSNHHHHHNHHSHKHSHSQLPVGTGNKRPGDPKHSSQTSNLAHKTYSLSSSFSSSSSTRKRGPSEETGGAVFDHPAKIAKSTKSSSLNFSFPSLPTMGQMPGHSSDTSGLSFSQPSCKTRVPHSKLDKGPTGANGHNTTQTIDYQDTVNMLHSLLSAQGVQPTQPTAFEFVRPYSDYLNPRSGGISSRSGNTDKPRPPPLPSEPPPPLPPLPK

- IC50 (human CDK9 kinase): 2.7 µM
- IC50 (human PIM2 kinase): 7.7 µM
Compound: CNCc1ccc(-c2[nH]c3cc(F)cc4c3c2CCNC4=O)cc1 [rucaparib]
